Among the data in PubChem BioAssay (NCI) are TGI and GI50 values, retold here.

A word on the TGI: it is the concentration at which net growth stops. Low readings indicate more potent growth arrest, high ones less potent growth arrest. For orientation: GI50 means the concentration at which growth is held to half of that of the control.

Common to all, as to test: DTP human tumour cell line panel, 48 h
Experiment [1] deals with A498 renal.
The test system of experiment [2] is A549 NSCLC.
The test system of experiment [3] is CAKI-1 renal.
Experiment [4] relates to CCRF-CEM leukemia.
Experiment [5] relates to OVCAR-8 ovarian.
Experiment [6] relates to RPMI-8226 leukemia.
Experiment [7] has as its system SK-MEL-2 melanoma.
Experiment [8] deals with U251 CNS.
Experiment [9] has as its system UO-31 renal.
The subject of experiment [10] is MDA-MB-435.

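Values below derive from 48-hour exposures of cells grown in 96-well plates, with endpoints linearly interpolated between the two concentrations bracketing the appropriate inhibition level. GI50 = concentration required for 50% inhibition of growth. TGI denotes the concentration required for complete inhibition of growth.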

For the compound `CCOC(=O)C1=C(C)N(C2OC(COC(=O)c3ccccc3)C(OC(=O)c3ccccc3)C2OC(=O)c2ccccc2)C(=S)NC1c1ccccc1` (stereo not drawn), the TGI in experiment [1] was above 100 µM; in [2] it was above 100 µM; in experiment [3], 79.4 µM; in [4] it was above 100 µM; in [5], above 100 µM; in [6], 45.2 µM. The TGI in experiment [7] is above 100 µM; in experiment [8], above 100 µM; in experiment [9], 99.4 µM.
As to `CN1CCC2(CC1)C(=NC1CCCCC1)NC(=O)N2c1ccccc1`, the total growth inhibition concentration (TGI) in [1], in experiment [2], in [4], in experiment [5], in experiment [6] and in [8] was above 100 µM throughout. The same compound returned a concentration for total growth inhibition (TGI) in experiment [9] above 100 µM.
As to `NS(=O)(=O)c1ccc(N=Nc2ccc(O)c(C(=O)O)c2)cc1`, the total growth inhibition concentration (TGI) in [1], in [2], in [3], in experiment [10], in experiment [5] and in experiment [6] was above 100 µM throughout. In addition, the TGI in experiment [7], in experiment [8] and in experiment [9] was above 100 µM in each case.
Turning to `O=C(CCC1CCCCN1)Nc1ccc2c(c1)C(=O)c1ccc(NC(=O)CCN3CCCCC3)cc1C2=O` (stereo not drawn), the TGI in [1] was 16.2 µM; in [2], 33.4 µM; in experiment [3] it was 5.61 µM; in [4] it was 4.86 µM; in [5] it was 9.73 µM; in [8], 23.8 µM. The compound also yielded a TGI in experiment [9] of 2.68 µM. The GI50 in experiment [4] is 1.12 µM.
As for `Cc1c(O)c(=O)ccn1CCc1ccc(O)cc1`, the TGI was above 100 µM in experiment [2]; 32 µM in [3]; 42 µM in experiment [4]; above 100 µM in experiment [10]; above 100 µM in experiment [5]; 45.4 µM in [6]. This compound returned a total growth inhibition concentration (TGI) in [8] above 100 µM.
`Cc1ccc(/C=C2/N=C(N/N=C\c3ccccc3)NC2=O)cc1`: the total growth inhibition concentration (TGI) in experiment [2] was above 100 µM; in [3], above 100 µM; in experiment [10] it was 69.7 µM; in experiment [5] it was above 100 µM; in experiment [6], 48.3 µM; in experiment [7], above 100 µM. Further, the figures for the TGI in experiment [8] and in experiment [9] were 89.6 µM and 45.6 µM, respectively.
On to `CC(C)c1ccc(/C=C2\CSCC3=C2N=C2SCC(=O)N2C3c2ccc(C(C)C)cc2)cc1` (stereo not drawn), for which the total growth inhibition concentration (TGI) in [2], in [3], in experiment [4], in [10], in experiment [5] and in experiment [6] was above 100 µM in each case. Moreover, the total growth inhibition concentration (TGI) in experiment [7], in [8] and in experiment [9] was above 100 µM in each case.
In the case of `C(#Cc1ccccc1)SC1=C(c2ccccc2)S/C(=C(\SC#Cc2ccccc2)c2ccccc2)S1`, the concentration for total growth inhibition (TGI) in [2], in experiment [3], in experiment [4], in [10], in experiment [5] and in [8] was above 100 µM throughout. In addition, in [9], the TGI is above 100 µM.
Regarding `O=S(=O)(O)c1ccc2c(N=Nc3ccc(Sc4ccc(N=Nc5c(O)ccc6cc(S(=O)(=O)O)ccc56)cc4)cc3)c(O)ccc2c1`, the total growth inhibition concentration (TGI) in [2], in [3], in experiment [4], in experiment [10], in experiment [5] and in experiment [6] was above 100 µM in each case. In addition, the TGI in experiment [7], in [8] and in experiment [9] was above 100 µM in each case.
Take `CCOC(C)OC1CC(n2cc(C)c(=O)[nH]c2=O)OC1CO` (stereo not drawn): the TGI in [1], in experiment [2], in experiment [4], in [5], in experiment [6] and in experiment [7] was above 100 µM throughout. For the same compound, the TGI in [8] and in experiment [9] was above 100 µM in each case.
On to `CCCCC[C@H]1CCCCCCCCCC(=O)OC2C(O[C@@H]3OC(C)[C@H](OC(=O)[C@@H](C)CC)C(O[C@@H]4OC(C)[C@H](O)C(O)[C@@H]4O)[C@@H]3OC(=O)[C@H](C)CC)[C@H](OC3C(O)[C@@H](O)C(C)O[C@H]3O1)OC(CO)[C@H]2O` (stereo partly drawn), for which the concentration for total growth inhibition (TGI) was 31.2 µM in experiment [2]; 31.7 µM in [3]; 32.5 µM in experiment [4]; 35.5 µM in [5]; 30.5 µM in experiment [6]; 30.5 µM in experiment [7]. For the same compound, the total growth inhibition concentration (TGI) in experiment [8] stood at 32.1 µM; in experiment [9] it was 30.8 µM.
Consider `CN/N=C(\C(=O)Nc1ccc(C)c(C)c1)C(C(=O)OC)c1nc2ccc([N+](=O)[O-])cc2[nH]c1=O` (stereo not drawn), for which the concentration for total growth inhibition (TGI) in experiment [1], in experiment [2], in [3], in experiment [4], in [5] and in [6] was above 100 µM in each case. For the same compound, the concentration for total growth inhibition (TGI) in [7], in experiment [8] and in [9] was above 100 µM in each case.
`C=CCNC(=S)/N=C/C(C(=O)Nc1ccccc1C)=C(\C)O`: the TGI in experiment [2], in [3], in [10], in experiment [5], in [6] and in experiment [7] was above 100 µM each time. In addition, the TGI in experiment [8] and in experiment [9] was above 100 µM each time.
As for `Cc1ccc(/C=C2\N=C(N3CCCC(CO)C3)NC2=O)cc1` (stereo not drawn), the TGI in [2], in experiment [3], in experiment [4], in experiment [10], in experiment [5] and in experiment [6] was above 100 µM each time. Also, the TGI in experiment [7], in experiment [8] and in experiment [9] was above 100 µM throughout.
With `O=C1CC(c2ccccc2)S(=O)c2ccccc2N1` (stereo not drawn), the concentration for total growth inhibition (TGI) in experiment [2], in experiment [3], in experiment [4], in experiment [10], in [5] and in experiment [6] was above 100 µM in each case. The TGI in experiment [8] and in [9] was above 100 µM throughout.
